Source: US20140314780A1, “Compositions Using Antibodies Directed to GPNMB and Uses Thereof” (Celldex Therapeutics, Inc., priority 2008, published 2014)

Assays:
GPNMB = assay: Immunoblotting for GPNMB on whole-cell lysates of cancer cell lines after drug exposure; assay type: cell-based, human
Excerpt: Cancer cell lines were of human origin and were obtained from the American Type Culture Collection (Manassas, Va.) and from the National Cancer Institute (Bethesda, Md.) and cultured in RPMI-1640 supplemented with 10% FBS (growth media). Sources of reagents were as follows: RAFKi (553013), MEKi (U0126), MEKi (PD98059), MEKi (444939), ERKi (FR180204), p38 MAPKi (SB202190), p38 MAPKi (SB203580), aurora kinase inhibitor (189404), JNK inhibitor (420119), MMPi (GM6001) were from EMD Chemicals (San Diego, Calif.). ERKi (A6355), RAFKi: (GW5074), ammonium chloride (NH4Cl), chloroquine, monensin, cyclohexamide and emetine were from Sigma (Saint Louis, Mo.). HSP90i (geldanamycin) was from AG Scientific (San Diego, Calif.) and imatinib (Gleevec) was purchased from a pharmacy.
Cells were seeded in 6-well tissue culture dishes at a subconfluent density and allowed to attach overnight. For harvesting cell lysates, media was removed, cells were briefly washed with serum-free media and then 1× Tris-glycine SDS sample buffer (Invitrogen, Carlsbad, Calif.) supplemented with 10 mM dithiothreitol (Sigma) was added directly to the wells. Cell lysates were then collected and boiled for 10 minutes. For preparing conditioned media, drug treatments were performed in a minimum volume of growth media (1.5 mL/well). Following 48 hours of incubation, conditioned media was collected, briefly microfuged, mixed with an equal volume of 2× Tris-glycine SDS sample buffer (Invitrogen, Carlsbad, Calif.) supplemented with 20 mM dithiothreitol (Sigma) and boiled for 10 minutes. For cell lysates, samples were quantified and an equal quantity of protein/lane was resolved on 4-20% gradient polyacrylamide gels (Invitrogen) and then transferred to nitrocellulose filters (Invitrogen). The volume of conditioned media loaded/lane was adjusted based on the protein concentration determined in the respective cell lysates. Immunoblotting was performed using standard procedures and the following primary antibodies: MARTI (sc-20032), TYRP2 (sc-25544), TYRP1 (sc-25543), PMEL17 (sc-15010), MAGEA1 (sc-20033), MCSP (sc-20162), MTf (sc-26651), MCAM (sc-18942), pp-ERK (sc-7976) and ERK (sc-94) (preceding antibodies were purchased from Santa Cruz Biotechnologies, Santa Cruz, Calif.), GPNMB (AF2550; R & D Systems, Minneapolis Minn.), actin (A5060; Sigma). Following incubation with the appropriate horseradish peroxidase-conjugated secondary antibodies, enhanced chemiluminescence (GE Healthcare, Chalfont St. Giles, United Kingdom) was used for detection.

phospho-ERK (pp-ERK) = assay: Immunoblotting for phospho-ERK (level of ERK activation); assay type: cell-based, human
Excerpt: In the experiment presented in FIG. 2A, potential inhibition of the ERK pathway was investigated by immunoblotting for phospho-ERK (pp-ERK), which represents the active form of this signaling molecule.

[1] = test system: GPNMB surface expression on SF539 glioblastoma cells; assay: Flow cytometry of GPNMB surface expression, SF539 cells; assay type: cell-based, human; conditions: SF549, CR011 (anti-GPNMB) primary antibody
Description: (§1) Cells were seeded in 6-well tissue culture dishes at a subconfluent density and allowed to attach overnight. The following day, cells were treated as indicated in the figures/legends, harvested with versene (Invitrogen), washed with PBS and incubated with primary antibody (10 μg/mL) diluted in staining buffer (PBS pH 7.4, 4% FBS, 0.1% sodium azide) for 30 minutes on ice. […] After incubation with primary antibody, samples were washed with staining buffer and then incubated with secondary antibody (PE-conjugated anti-human antibody; 1:100) for 30 minutes on ice. After incubation, samples were washed with staining buffer and examined on a Becton Dickinson FACSCalibur flow cytometer (BD Immunocytometry Systems, San Jose, Calif.). Data analysis was performed with Becton Dickinson Cell Quest software and the geometric mean fluorescence intensity (GeoMean) was determined for each sample.
For the data shown in Table 37, flow cytometry was performed on intact, non-permeabilized cells using the indicated primary monoclonal antibodies. […] The results are reported as GeoMeans. […] For the data shown in the bottom left panel of Table 37, SKMEL2 (melanoma) cells were treated with MEKi (U0126; 10 uM), imatinib (20 uM), p38i (p38 MAPKi SB202190; 50 uM), NH4Cl (ammonium chloride; 20 mM) or CLQ (chloroquine; 20 uM) for 48 hours prior to analysis. For the data shown in the bottom right panel of Table 37, WM2664 (melanoma) cells were treated with MON (monensin) or MMPi (GM6001) for 48 hours prior to analysis.

[2] = test system: GPNMB surface expression on SKMEL2 melanoma cells; assay: Flow cytometry of GPNMB surface expression, SKMEL2 cells; assay type: cell-based, human; conditions: SKMEL2; CR011 (anti-GPNMB) primary antibody; MEKi (U0126) 10 uM, imatinib 20 uM, p38i (SB202190) 50 uM
Description: as §1
For the data shown in Table 37, flow cytometry was performed on intact, non-permeabilized cells using the indicated primary monoclonal antibodies. […] The results are reported as GeoMeans. For the data shown in the top panel of Table 37, A375 (melanoma) or SF539 (glioblastoma) cells were treated with the indicated concentrations of MEKi (U0126), RAFKi (553013) or ERKi (FR180204) for 12, 24 or 48 hours prior to analysis. For the data shown in the bottom left panel of Table 37, SKMEL2 (melanoma) cells were treated with MEKi (U0126; 10 uM), imatinib (20 uM), p38i (p38 MAPKi SB202190; 50 uM), NH4Cl (ammonium chloride; 20 mM) or CLQ (chloroquine; 20 uM) for 48 hours prior to analysis. For the data shown in the bottom right panel of Table 37, WM2664 (melanoma) cells were treated with MON (monensin) or MMPi (GM6001) for 48 hours prior to analysis.

UACC62 melanoma cells = assay: In vitro growth-inhibition/cytotoxicity assay, UACC62 cells; assay type: cell-based, human; conditions: UACC62 cells
SKMEL2 cells = SKMEL2 cells (FIG. 4C)
Description: Cells were seeded in tissue culture dishes at a subconfluent density and allowed to attach overnight. The following day, cells were treated with or without U0126 (1 μM) diluted in growth media and incubated for 48 hours. […] After incubation, photomicrographs were taken and adherent cells were trypsinized, mixed with trypan blue dye and counted on a haemocytometer. Only viable cells which excluded trypan blue were counted. For SKMEL2, cells were seeded in 96-well plates after U0126 treatment and assayed after 72 h using the CellTiter-Glo assay according to the manufacturer's instructions (Promega, Madison, Wis.).

N#CC(=C(/N)Sc1ccccc1N)/C(C#N)=C(\N)Sc1ccccc1N [Mab U0126]
GPNMB induction (immunoblotting), kinetics and drug concentration (GPNMB): increased with exposure time
GPNMB induction compared to other melanoma-associated proteins (GPNMB): most consistently induced
inhibition of the ERK pathway (phospho-ERK levels) (phospho-ERK (pp-ERK); A375 and SKMEL2 cell lines (FIG. 3B)): robust and sustained inhibition
inhibition of the ERK pathway (phospho-ERK levels) (phospho-ERK (pp-ERK); SF539 cells (FIG. 3B)): transient inhibition
GPNMB surface expression, flow cytometry GeoMean ([1]; MEKi (U0126) 5 um, 12 h): 41.5
GPNMB surface expression, flow cytometry GeoMean ([1]; MEKi (U0126) 5 um, 24 h): 36.3
GPNMB surface expression, flow cytometry GeoMean ([1]; MEKi (U0126) 5 um, 48 h): 41.5
GPNMB surface expression, flow cytometry GeoMean ([1]; MEKi (U0126) 20 um, 12 h): 46.3
GPNMB surface expression, flow cytometry GeoMean ([1]; MEKi (U0126) 20 um, 24 h): 39.2
GPNMB surface expression, flow cytometry GeoMean [2]: 174.5
sensitization to CR011-vcMMAE by pretreatment, CellTiter-Glo assay (ATP) (UACC62 melanoma cells): confirmed
sensitization to growth-inhibitory activity of CR011-vcMMAE by pretreatment (UACC62 melanoma cells): sensitized
sensitization to CR011-vcMMAE by pretreatment (SKMEL2 cells): sensitized
